The values that follow come from ChEMBL document CHEMBL1201862, “PubChem BioAssay data set” (2004).

Among the test systems are RPMI-8226; 786-0; SW-620; IGROV-1; SF-539; TK-10; SR; MDA-MB-231; NCI-H460; T47D; NCI-H226; SK-MEL-5; CCRF-CEM; MCF7; SF-268; HL-60; SNB-19; CAKI-1; A549; KM12.
Holding throughout (assay): NCI anticancer screen, dose series, 48 h

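Compound exposure: 48 hours, 5 concentrations, 96-well plates. GI50 = concentration required for 50% inhibition of growth.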 Active and inactive are the calls of the source. Rule as the data show it: active = GI50 up to about 1.1 µM and inactive = higher.

For `CC1=NN(c2cccc(Cl)c2)C(=N/c2nc3ccccc3s2)/C1=C\c1ccc(Cl)cc1`, the GI50 in the experiment on RPMI-8226 was 37.2 µM (inactive); in the experiment on 786-0, 18.8 µM (inactive); in the experiment on SW-620, 19.9 µM (inactive); with IGROV-1, 13.5 µM (inactive); in the experiment on SF-539, 18.4 µM (inactive); with TK-10, 26.4 µM (inactive). In addition, the GI50 in the experiment with SR is 24.7 µM (inactive); in the experiment with MDA-MB-231, 20.7 µM (inactive); with NCI-H460 it was 17.2 µM (inactive); in the experiment with T47D, 33.6 µM (inactive); with NCI-H226, 21.2 µM (inactive); in the experiment on SK-MEL-5, 15.8 µM (inactive). Besides, the GI50 in the experiment on CCRF-CEM is 26.1 µM (inactive); with MCF7 it was 22.2 µM (inactive); with SF-268, 19.3 µM (inactive); with HL-60 it was 22.4 µM (inactive).

For the molecule `COc1ccc2c(c1)-c1c(c3cc(OC)ccc3n1CCCN(C)C)CC2`, the GI50 was 5.24 µM (inactive) with RPMI-8226; 9.04 µM (inactive) with 786-0; 14.6 µM (inactive) in the experiment with SNB-19; 11.1 µM (inactive) in the experiment with SW-620; 12.4 µM (inactive) with CAKI-1; 2.93 µM (inactive) in the experiment with IGROV-1. For the same molecule, the GI50 was 16.5 µM (inactive) with TK-10; 5.18 µM (inactive) in the experiment on SR; 13 µM (inactive) in the experiment with MDA-MB-231; 10.1 µM (inactive) in the experiment on NCI-H460; 5.36 µM (inactive) with T47D; 12.1 µM (inactive) with A549. The GI50 is 1.84 µM (inactive) with NCI-H226; 2.68 µM (inactive) in the experiment on SK-MEL-5; 4.46 µM (inactive) with CCRF-CEM; 7.93 µM (inactive) in the experiment with KM12; 7.83 µM (inactive) in the experiment on MCF7; 10.7 µM (inactive) in the experiment on SF-268. Further, the GI50 in the experiment with HL-60 was 15.3 µM (inactive).

For the molecule `CN(C(=O)OC(C)(C)C)[C@H]1CCCC[C@H]1N1CCCC1`, the GI50 with RPMI-8226, in the experiment with 786-0, in the experiment on SNB-19, in the experiment with SW-620, in the experiment on CAKI-1 and in the experiment with IGROV-1 was > 100 µM (inactive) throughout. In addition, the GI50 in the experiment on SF-539, in the experiment on TK-10, in the experiment on SR, in the experiment on MDA-MB-231, with T47D and in the experiment on A549 was > 100 µM (inactive) throughout. Moreover, the GI50 was > 100 µM (inactive) in the experiment with NCI-H226; > 100 µM (inactive) in the experiment on SK-MEL-5; 0.0129 µM (active) with CCRF-CEM; > 100 µM (inactive) in the experiment with KM12; > 100 µM (inactive) in the experiment on MCF7; > 100 µM (inactive) in the experiment with SF-268. Further, the GI50 in the experiment with HL-60 was 5.81 µM (inactive).

For `c1ccc(-c2nnn3c2NC2=C(CCCC2)C3c2ccccc2)cc1` (centres undefined), the GI50 was 14.9 µM (inactive) with RPMI-8226; 16.7 µM (inactive) in the experiment with 786-0; 33.8 µM (inactive) in the experiment with SNB-19; 12.5 µM (inactive) with SW-620; 18.2 µM (inactive) in the experiment with CAKI-1; 17.5 µM (inactive) with IGROV-1. Moreover, the GI50 with SF-539 was 19.1 µM (inactive); in the experiment with SR, 13.5 µM (inactive); with MDA-MB-231, 24.6 µM (inactive); with NCI-H460, 23.4 µM (inactive); in the experiment on T47D, 22.5 µM (inactive); in the experiment on A549 it was 12.9 µM (inactive). In addition, the GI50 in the experiment with NCI-H226 is 27.4 µM (inactive); in the experiment with SK-MEL-5 it was 14.2 µM (inactive); in the experiment with CCRF-CEM, 12.3 µM (inactive); with KM12, 15.5 µM (inactive); with MCF7 it was 17.1 µM (inactive); with SF-268 it was 21.3 µM (inactive). The GI50 in the experiment on HL-60 is 18.5 µM (inactive).

For `CCCC(=O)n1[nH]c(=O)n(-c2ccc(Cl)cc2)c1=O`, the GI50 in the experiment with RPMI-8226, in the experiment with 786-0, in the experiment with SNB-19, with SW-620, in the experiment on CAKI-1 and with IGROV-1 was > 100 µM (inactive) each time. Moreover, the GI50 in the experiment with TK-10, with SR, in the experiment on MDA-MB-231, in the experiment on NCI-H460, in the experiment on T47D and in the experiment with A549 was > 100 µM (inactive) in each case. The GI50 with NCI-H226, in the experiment on SK-MEL-5, with CCRF-CEM, with KM12, in the experiment with MCF7 and in the experiment with SF-268 was > 100 µM (inactive) each time. Moreover, the GI50 in the experiment on HL-60 is > 100 µM (inactive).

`CCC(=O)c1ccc2[nH]c3c(C)c4c(O)cc(C)nc4c(C)c3c2c1`: the GI50 in the experiment with 786-0, in the experiment on SNB-19, in the experiment on SW-620, in the experiment with CAKI-1, in the experiment with IGROV-1 and in the experiment with SF-539 was > 100 µM (inactive) in each case. Moreover, the GI50 in the experiment with TK-10 was 63.2 µM (inactive); in the experiment with SR, 40.6 µM (inactive); in the experiment on MDA-MB-231, 40.8 µM (inactive); in the experiment on NCI-H460 it was > 100 µM (inactive); in the experiment with T47D it was > 100 µM (inactive); in the experiment on A549, > 100 µM (inactive). Moreover, the GI50 with NCI-H226, in the experiment on SK-MEL-5, with CCRF-CEM, in the experiment on KM12, in the experiment on MCF7 and in the experiment on SF-268 was > 100 µM (inactive) in each case. Further, the GI50 in the experiment with HL-60 was > 100 µM (inactive).

In the case of `CCCCCC(=O)OCC(=O)[C@H]1[C@H](C)C[C@H]2[C@@H]3C[C@H](F)C4=C/C(=N/OC(=O)c5cccc6c(=O)c7ccccc7[nH]c56)C=C[C@]4(C)[C@H]3[C@@H](O)C[C@@]21C`, the GI50 in the experiment on RPMI-8226 is < 0.01 µM (active); in the experiment on 786-0, 48.3 µM (inactive); with SNB-19, 37.3 µM (inactive); in the experiment with SW-620 it was 28.2 µM (inactive); in the experiment on CAKI-1, 41.8 µM (inactive); in the experiment with IGROV-1, 25.2 µM (inactive). Besides, the GI50 in the experiment on SF-539 was 23.9 µM (inactive); in the experiment with TK-10 it was 26.2 µM (inactive); in the experiment with SR, 21.5 µM (inactive); with MDA-MB-231, 40.8 µM (inactive); with T47D, 19 µM (inactive); with A549 it was 20.6 µM (inactive). Further, the GI50 with NCI-H226 was 4.78 µM (inactive); in the experiment on SK-MEL-5 it was 14.7 µM (inactive); in the experiment on CCRF-CEM it was 89.7 µM (inactive); in the experiment with KM12 it was 10.7 µM (inactive); with MCF7 it was 21.9 µM (inactive); in the experiment on SF-268, 53.8 µM (inactive). Moreover, the GI50 in the experiment with HL-60 is > 100 µM (inactive).

Take `CCOc1ccncc1[N+](=O)[O-]`: the GI50 with RPMI-8226, with 786-0, in the experiment with SNB-19, in the experiment with SW-620, with CAKI-1 and in the experiment on IGROV-1 was > 100 µM (inactive) in each case. Also, the GI50 with SF-539, in the experiment with TK-10, in the experiment on SR, in the experiment on MDA-MB-231, in the experiment with T47D and with A549 was > 100 µM (inactive) in each case. In addition, the GI50 in the experiment with NCI-H226, in the experiment with SK-MEL-5, in the experiment with CCRF-CEM, with KM12, in the experiment on MCF7 and in the experiment with SF-268 was > 100 µM (inactive) throughout. For the same molecule, the GI50 in the experiment with HL-60 was > 100 µM (inactive).
